Reference: patent publication US8354455B2, “Prodrugs containing novel bio-cleavable linkers” (Piramal Enterprises Limited and Apparao Satyam, priority 2004, dated 2013)
Where two headings read alike, the source gives them in different places.

What was measured:
[1] = rat, in vivo, po
[2] = tested on: rats; settings: rat, in vivo, po
[3] = In vitro plasma stability; format: in vitro ADME; settings: rat plasma, 37° C., 30 minutes incubation, HPLC
Source text: The compounds were extracted back into acetonitrile with rigorous vortex.

[4] = tested on: carrageenan-induced rat paw edema; assay: Carrageenan-induced rat paw edema; format: in vivo; settings: 75 mg/kg equivalent dose of aspirin, p.o.

| Compound | bioavailability compared with parent drug (in words) [1] | ulcers (in words) ([2]; 200 mg/kg) | release of parent drug / conversion to salicylate (in words) [3] | anti-inflammatory activity (in words) [4] | prodrug or salicylate found in plasma (in words) ([1]; 35 mg/kg) | ulcers (in words) ([2]; 100 mg/kg) |
| --- | --- | --- | --- | --- | --- | --- |
| CC(=O)Oc1ccccc1C(=O)[N-]C(=O)OCCSSCCO[N+](=O)[O-].[Na+] [I-C1-NOPD5B] | as bioavailable as its parent drug | none of the animals treated with the test compounds showed any signs of development of ulcers | – | – | – | – |
| CC(=O)Oc1ccccc1C(=O)NC(=O)OCCSSCCO[N+](=O)[O-] [I-C1-NOPD5A] | – | none of the animals treated with the test compounds showed any signs of development of ulcers | converting to the expected metabolite (salicylate) | negligible anti-inflammatory activity | – | – |
| CC(=O)Oc1ccccc1C(=O)NCCSSCCO[N+](=O)[O-] [I-C1-NOPD6] | – | – | – | – | neither the prodrug nor the salicylate was found in the plasma | none of the animals treated with the test compounds showed any signs of development of ulcers |
